Assay results taken from PMC8375385, “In vitro Effect of Harmine Alkaloid and Its N-Methyl Derivatives Against Toxoplasma gondii” (Frontiers in Microbiology, 2021).
“Also recorded” adds a separate entry of the source. Read-outs that look alike come from different tables or passages of the source.

What was measured:
[1] = system: T. gondii RH Δhxgprt tachyzoites; assay: Replication assay (tachyzoites per PV); type: cell-based, Toxoplasma gondii; conditions: for increase of % PV with one parasite (% PV (1P)) vs control: 1-h-pretreated extracellular tachyzoites, 5–50 μM, 1 day of incubation without drug; for % PV (1P): intracellular tachyzoites in Vero cells, 7.5 μM, 2 days of incubation
Protocol: The effect of βCs on the replication process was evaluated on both extracellular and intracellular treated tachyzoites of the strain RH Δhxgprt. In the first case, the procedure followed was described above (see invasion assay), but after allowing the invasion, samples were washed with PBS and incubated for 1 day with supplemented DMEM (without drugs), before fixing and staining. To investigate βCs’ action on intracellular parasites, confluent Vero cells grown in 24-well plates were infected with 2 × 10^6 tachyzoites per well and treated for 2 days with different concentrations of the investigated drugs or the vehicle (DMSO) as negative control. Finally, they were fixed and immunolabeled as detailed previously. The number of tachyzoites per PV was analyzed under a microscope with × 63 magnification. At least 100 PVs selected at random were scored in triplicates, per compound dose, in two independent sets of experiments. Results are depicted as the mean percentage of PVs (% PV) that contained a geometric progression 2^n (with “n” being a natural number ≥ 0) of tachyzoites per PV ± SEM.

[2] = system: T. gondii RH RFP tachyzoites; assay: Lytic cycle growth assay (RFP fluorescence); type: cell-based, Toxoplasma gondii; conditions: for effect on tachyzoite growth: up to 10 μM, 3 d.p.i.; for IC50: Toxoplasma gondii, Fibroblast; for selectivity index (SI): CC50 hTERT 4 days / IC50 at 4 d.p.i.
[3] = system: T. gondii RH Δhxgprt tachyzoites; assay: Tachyzoite cell cycle analysis by flow cytometry; type: cell-based, Toxoplasma gondii; conditions: infected hTERT fibroblasts, 2 days; 1–3 at 7.5 μM, SDZ at 500 μM
Protocol: Tachyzoites of the RH Δhxgprt strain (3 × 10^6) were added to hTERT cell monolayers grown into six-well plates. After invasion was allowed, the medium was changed, and infected cells were incubated for 2 days with 1, 2, and 3 (7.5 μM); SDZ (500 μM, positive control); or the vehicle (negative control), diluted in supplemented DMEM. Then, cells were detached using trypsin/EDTA solution and gently ruptured by successive passages through 27- and 30-gauge needles in order to obtain free parasites. Samples were centrifuged (2,000 rpm, 10 min), washed with PBS, fixed with 70% ethanol, and stored for 1 day at −20°C. Afterward, samples were processed and stained as described previously ([Munera Lopez et al., 2019]). At least 10,000 tachyzoites per sample were analyzed by flow cytometry measurements, carried out in a BD FACSCalibur equipment. Results were analyzed using FlowJo software 7.6. All assays were performed in duplicates, in two independent experiments.

ctDNA = conditions: pH 7.4, cited from earlier work
[4] = system: T. gondii RH Δhxgprt tachyzoites; assay: Invasion assay, pretreated extracellular tachyzoites; type: cell-based, Toxoplasma gondii; conditions: extracellular tachyzoites preincubated 1 h, 0 up to ∼50 μM, Vero cells
Protocol: Extracellular tachyzoites of RH Δhxgprt strain (2 × 10^6) were preincubated for 1 h (at 37°C and 5% CO2) with different doses of the assayed compounds (up to 40–50 μM) or the vehicle (DMSO) diluted in supplemented DMEM. Parasites were, then, centrifuged, resuspended in supplemented DMEM, and were allowed to invade Vero cell monolayers grown on coverslips in 24-well plates by incubation for 10 min on ice followed by 1 h at 37°C. Invasion assay was performed as described elsewhere ([Yañuk et al., 2017]). To facilitate counting, cells were analyzed by indirect immunofluorescence assay (IFA). Immunostaining was performed using anti-SAG1 mouse monoclonal (Novus Biologicals, 1:50)/goat anti-mouse Alexa Fluor 488 (Invitrogen, 1:4,000) antibodies. Fifty random fields per sample, with a similar number of host cells, were analyzed under microscope (Zeiss Axio Observer Colibri 7, magnification × 63). The number of parasitophorous vacuoles per field (PV/field) was counted. Data are presented as means of PV/field ± SEM. Two independent experiments were performed in duplicates.

in vitro = conditions: African green monkey (Cercopithecus aethiops)
T. gondii γH2A.X = assay: Western blot of γH2A.X in intracellular tachyzoites; type: cell-based, Toxoplasma gondii; conditions: 2 days; for γH2A.X levels: intracellular tachyzoites, CPT 10 μM or 3 7.5 μM alone
Protocol: Monolayers of hTERT cells grown in 12-well plates were infected with 5 × 10^6 tachyzoites of the RH Δhxgprt strain. After the invasion process, cells were washed with PBS and incubated with 3 (7.5 μM), CPT (10 μM), 3 (7.5 μM) plus CPT (10 μM), or the vehicle (DMSO), diluted in supplemented DMEM for 2 days. Then, infected cells were harvested by trypsinization, centrifuged, resuspended in PBS, and lysed by freeze–thaw cycling. Samples were resolved by SDS-PAGE (15%), and a western blot assay was conducted. Membranes were incubated (1 h, RT) with rabbit anti-T. gondii γH2A.X (1:500) ([Contreras et al., 2021]) and murine anti-SAG1 (Novus Biologicals, 1:500). Finally, they were washed several times with PBS-T and incubated with alkaline phosphatase-conjugated anti-rabbit or anti-mouse secondary antibodies, diluted to 1:4,000 (Santa Cruz Biotechnology). Immunoreactive protein bands were visualized by the NBT-BCIP (Promega) method. Densitometric analysis of scanned images was performed using the Image-Pro Plus software.

topoisomerase I = system: topoisomerase I; design: method as in Cao et al., 2005; conditions: cell-free system, ref Cao et al., 2005, cited from earlier work
human topoisomerase II = system: human topoisomerase II; design: method as in Cao et al., 2005; conditions: 600 μM; ref Cao et al., 2005; cited from earlier work
[5] = MTT cytotoxicity on hTERT fibroblasts, 4 days; type: cell-based, human; conditions: human, MTT, 4 days of incubation (Table 1 footnote b)
Protocol: (§1) The same assay was performed for hTERT fibroblasts, incubated for 4 days with different concentrations of 3. Absorbance was read at 540 nm (reference wavelength: 700 nm) in a plate reader (Synergy H1 Hybrid Reader, BioTek). Average absorbance from background wells (without cells, treated as the samples) was subtracted out, to obtain corrected values (A540 corr). The percentage of cell viability was calculated as follows:
(§2) Cellviability(%)=A540corrtreatedcells/A540corruntreatedcells×100
(§3) CC50 values were obtained by nonlinear regression analysis of cell viability (%) vs. log[compound] with a variable Hill’s slope, using the GraphPad Prism 5.03 software. Each concentration was assayed in triplicates, in three independent sets of experiments. To avoid effects of evaporation, outer wells were not used.

hTERT fibroblasts = assay: MTT cytotoxicity on hTERT fibroblasts, 4 days; type: cell-based, human; conditions: 10 μM, 4 days
Protocol: as §1, §2, §3

[6] = system: T. gondii RH Δhxgprt tachyzoites; assay: Plaque reduction assay; type: cell-based, Toxoplasma gondii
Protocol: Monolayers of hTERT fibroblasts grown into 24-well plates were infected with 1 × 10^4 tachyzoites per well of the RH Δhxgprt strain. Then, they were washed with PBS and treated with different concentrations of 3 or the vehicle (DMSO) diluted in supplemented DMEM. After 6.5 days of incubation, monolayers were washed, fixed with ethanol (70% v/v), and stained with crystal violet (Sigma). The IC50 value was obtained by nonlinear regression analysis of the number of plaques vs log[3] (variable Hill’s slope). The area of the plaques was analyzed by ImageJ software.

[7] = system: T. gondii RH RFP tachyzoites; assay: Time of removal assay; type: cell-based, Toxoplasma gondii; conditions: for growth recovery after drug removal: followed up to 15 d.p.i.
Vero cells = assay: MTT cytotoxicity on Vero host cells, 2 days; conditions: Vero cells, 2 days of treatment (Table 1 footnote a)
[8] = MTT cytotoxicity on Vero host cells, 2 days; conditions: African green monkey (Cercopithecus aethiops), CC50, Vero cells, 2 days of treatment (Table 1 footnote a)
T. gondii RH strain = system: T. gondii RH strain; design: method as in not given; conditions: footnote text not given, ref not given, cited from earlier work
[9] = system: T. gondii RH Δhxgprt tachyzoites; design: method as in Alomar et al. (2013); conditions: extracellular tachyzoites preincubated 1 h, 0 up to ∼50 μM, Vero cells; ref Alomar et al. (2013); cited from earlier work
[10] = system: T. gondii RH Δhxgprt tachyzoites; design: method as in Alomar et al. (2013); conditions: 1-h-pretreated extracellular tachyzoites, 25–40 μM, 1 day of incubation; ref Alomar et al. (2013); cited from earlier work
host cells = system: host cells; design: method as in not given; conditions: Table 1 footnote c, footnote text not given; ref not given; cited from earlier work
[11] = 72 h, RH RFP strain in hTERT fibroblasts, 3 d.p.i. (Table 1 footnote d), read-out: IC50 (converted)

Structure (SMILES)	increase of % PV with one parasite (% PV (1P)) vs control [1]	% PV (1P) [1]	effect on tachyzoite growth ([2]; RH RFP in hTERT fibroblasts)	IC50 [2, 11]	effect on tachyzoite cell cycle (DNA content, G1 vs S/M) [3]	effect on invasion process (PV/field) [4]	γH2A.X levels (T. gondii γH2A.X)	inhibition of topoisomerase I activity (topoisomerase I; 50 μM)	inhibition of topoisomerase I activity (topoisomerase I; 150 μM)	inhibition of human topoisomerase II (human topoisomerase II)	CC50 at 4 days [5]	selectivity index (SI) [2]	CC50 (Vero cells)	CC50 at 2 days ([8]; Vero cells (monolayers))	IC50 (T. gondii RH strain; Table 1 footnote g)	further results
COc1ccc2c(c1)[nH]c1c(C)[n+](C)ccc12 [Compound 2, 2-methyl-harminium]	around fourfold	68%	no major impact	> 10 µM	arrest in S/M phases; also recorded: significant enrichment in tachyzoite DNA content compatible with S/M phases	negligible or rather low effect	–	–	–	–	–	–	–	–	–	overall binding constant to ctDNA (ctDNA; ref Denofrio et al., 2020): 5.9 ± 0.3 × 10^3 M^–1 in bp; CC50 at 2 days (in vitro): > 500 µM
CC[C@@]1(O)C(=O)OCc2c1cc1n(c2=O)Cc2cc3ccccc3nc2-1 [CPT, camptothecin, reference compound]	–	–	–	–	–	–	notable increase	–	–	–	–	–	–	–	–	–
COc1ccc2c3ccnc(C)c3n(C)c2c1 [Compound 3, 9-methyl-harmine]	fivefold	78%	strong growth inhibition	1.6 ± 0.2 µM	arrest in S/M phases; also recorded: significant enrichment in tachyzoite DNA content compatible with S/M phases	negligible or rather low effect	decreased basal levels	strongly decreases	inhibited	do not inhibit	31 µM	17.2	59 ± 8 µM	~60 µM	–	impact on fibroblast metabolism (MTT) (hTERT fibroblasts): no impact; parasite growth in plaque assay ([6]; 7.5 μM, 6.5 days, RH Δhxgprt): no parasite growth; IC50 ([6]; Toxoplasma gondii, Fibroblast, 156 h, read-out: IC50 (number of plaques)): 3.1 µM; IC50 ([2]; 96 h, RH RFP strain in hTERT fibroblasts, 4 d.p.i. (Table 1 footnote e), read-out: IC50 (converted)): 1.8 µM; growth recovery after drug removal ([7]; 1.7 and 2 days of treatment, 7.5 μM): significant reduction of tachyzoite growth; growth recovery after drug removal ([7]; 1.7 and 2 days of treatment, 10 μM): total growth inhibition; growth recovery after drug removal ([7]; 0.7 days of treatment, 5, 7.5 and 10 μM): not effective; parasite growth under continuous treatment ([7]; continuous treatment up to 15 days, 5, 7.5 and 10 μM): complete inhibition of parasite growth; overall binding constant to ctDNA (ctDNA; ref Vignoni et al., 2014): 16.8 ± 0.5 × 10^3 M^–1 in bp; γH2A.X levels when co-administered with CPT (T. gondii γH2A.X; 3 7.5 μM plus CPT 10 μM): reduced them significantly
Nc1ccc(S(=O)(=O)Nc2ncccn2)cc1 [SDZ, sulfadiazine, reference compound]	–	–	–	~500 µM	–	–	–	–	–	–	–	–	–	> 500 µM	2400 to 2800 µM	decrease in RFU values with respect to untreated controls ([2]; SDZ 250 and 500 μM, RH RFP in hTERT fibroblasts): ~50%; IC50 (T. gondii RH strain; Table 1 footnote h): 308 µM
COc1ccc2c(c1)[nH]c1c(C)nccc12 [Compound 1, harmine]	–	65%	no major impact	–	negligible or null effect	–	–	strongly decreases	inhibited	do not inhibit	49 µM	<5	57 ± 4 µM	–	–	effect on invasion process (PV/field) [9]: inhibited; IC50 ([2]; 72 h): > 10 µM; IC50 ([2]; 96 h): > 10 µM; change in % PV with two parasites (% PV (2P)) vs control [10]: sharp increase; overall binding constant to ctDNA (ctDNA; ref Yañuk et al., 2018): 7.7 ± 0.2 × 10^3 M^–1 in bp; CC50 at 2 days [8]: ~60 µM
CCc1nc(N)nc(N)c1-c1ccc(Cl)cc1 [Pyrimethamine, pyrimethamine]	–	–	–	–	–	–	–	–	–	–	–	–	–	–	0.8 µM	CC50 (host cells): > 40.2 µM; IC50 (T. gondii RH strain; reported on RH strain, Table 1 footnote c): 3.4 µM
